Source: patent US6355616B1, “Derivative compounds derived from or based on bactericidal/permeability-increasing protein” (priority 1999, dated 2002)

Experiments:
Candida albicans SLU-1 = assay: Radial diffusion assay; type: cell-based; conditions: 30 mm^2 area of growth inhibition, calculated by PROBIT analysis
Method: In the radial diffusion assay procedures, the CA-1 cultures and derivatized peptide solutions were prepared as in the broth microdilution assay procedure described above, i.e., CA-1 was grown to exponential phase in SDB. Ten (10) mL of molten underlayer agarose comprising 3% Sabouraud Dextrose broth, 1% agarose (Pharmacia, Piscataway, N.J.), 0.02% Tween 20, and 10 mM sodium phosphate at pH 7.4, was added to polystyrene tubes and maintained in a 56° C. water bath until the addition of yeast. Tubes were cooled to approximately 45° C., yeast were added to give a final concentration of 1×10^6 CFU/mL, and the tubes were mixed again by inverting. The contents were poured into leveled, square petri dishes and distributed evenly. […] A series of wells were punched into the hardened agarose using a sterile 3 mm punch attached to a vacuum apparatus to achieve a uniform, 3 mm diameter well.
Derivatized peptide sequences to be assayed were 2-fold serially diluted in 10 mM Dulbecco's PBS (D-PBS) starting from a concentration of approximately […]. Five μL of each dilution were added to each well and the plates were incubated at 37° C. for 3 hours to allow for complete diffusion of the test compounds. An overlayer of 10 mL of molten agarose comprising 6% Sabouraud Dextrose broth, 1% agarose, and 10 mM sodium phosphate, pH 7.4, (at approximately 45° C.) was then added and plates were incubated overnight at 37° C. Following this overnight incubation, a dilute Coomassie solution was poured into the plates and allowed to stain for 24 hours to enhance visualization of the zones.
Clear zones of growth inhibition around each well were measured with calipers. The actual area of growth inhibition (mm^2) was calculated by subtracting the area of the well. Table II below sets out the results of the radial diffusion assays for a series of tested peptide-based constructs in terms of the number of picomoles (pmol) of compound required to establish a 30 mm^2 area of growth inhibition of Candida albicans SLU-1 calculated by PROBIT analysis (e.g., calculated from regression of the linear portion of log-concentration dose-response curve, log pmol/well vs. net area of inhibition).

[1] = system: Candida albicans designated CA-1, Strain SLU-1; type: cell-based; conditions: C. albicans SLU1; 24 hours at 37° C.; OD 595 nm below 0.1
Method: In each broth microdilution assay screening procedure, a colony of Candida albicans designated CA-1, Strain SLU-1 that was received from the laboratories of G. Matuschak and A. Lechner, St. Louis University Hospital, St. Louis, Mo., where the strain was maintained, was inoculated into a tube containing 5 mL Sabouraud Dextrose broth (2% dextrose, 1% neopeptone) and incubated at 37° C. with shaking. The overnight culture was diluted 1:50 into 5 ml of fresh broth and incubated for 3 hours at 37° C. to exponential phase growth. Organisms were pelleted by centrifugation in a Beckman J-6M centrifuge for 5 minutes at 3000 rpm (1500×g) and the pellets were resuspended in 5 mL phosphate buffered saline (PBS) and the optical density (OD) at 570 nm was determined. On the basis of the determination that one OD unit equals 3×10^7 colony forming units/mL (CFU/mL), yeast cells were diluted to 5×10^3 CFU/mL in Sabouraud Dextrose broth (SBD).
Derivatized peptide sequences based on Domain III of BPI to be screened which were originally constituted in Dulbecco's-PBS, were two-fold serially diluted in SDB starting from a concentration of 128 μg/mL. Equal volumes (100 μL) of yeast suspension as prepared above and derivatized peptide solution were added to wells of a 96-well sterile, flat bottom, non-pyrogenic tissue culture microtiter plate (Costar, Cambridge, Mass.) to reach a final volume of 200 μL/well. The plate was incubated on a shaker at 37° C. for 24 hours. All assays were performed in triplicate. Following the incubation period, plates were read in an ELISA plate reader at 595 nm wavelength to determine the minimum inhibitory concentration (MIC), i.e., the lowest concentration required to reduce the optical density at 595 nm to below 0.1 OD.

Candida albicans, SLU-1 = assay: 28-day comparative survival efficacy study in mice systemically infected with Candida albicans; type: in vivo, male DBA/2 mice; conditions: mice infected iv with C. albicans SLU-1; two doses less than 5 mg/kg; initial experiments (p>0.5)
Method: Derivatized peptide-based constructs are tested for activity upon oral administration (oral activity) in a 28-day comparative survival efficacy study in mice systemically infected with Candida albicans. Specifically, male DBA/2 mice (Charles River Laboratories) six weeks of age are dosed with 7.9×10^4 Candida albicans, SLU-1 in 100 μL intravenously via the tail vein in a single dosage on day zero (0). However, other routes of administration, including intraperitoneal (ip) and subcutaneous (sc) routes may be administered. Amphotericin B will provide complete protection at 0.5 mg/kg qod (100% survival). Mortality data will be subjected to Kaplan-Meier survival analysis. All treatment groups may be considered statistically significant vs. saline at p values <0.05.
Treatment begins immediately thereafter with 400 μL oral gavage of either 0.5% dextrose, or derivative compound in 0.5% dextrose at various dosage levels (e.g., 10 mg/kg or 20 mg/kg) according to a prescribed dosing regimen (e.g. every other day for a total of eight times). Amphotericin B (Fungizone®) is administered intravenously at 0.5 mg/kg as a positive control every other day for a total of eight times. Twice-day monitoring (once daily on weekends and holidays) for mortality is performed. The animals treated with antiflngal derivative compound show improvement in mortality compared with the dextrose-treated controls, preferably statistically significant improvement (p-value of […]).

Compound: CC[C@@H](C)[C@@H](NC(=O)[C@@H](CC(C)C)NC(=O)[C@@H](Cc1c[nH]c2ccccc12)NC(=O)[C@@H](CCCCN)NC(=O)c1ccccc1O)C(=O)N[C@H](CCC(N)=O)C(=O)N[C@H](CC(C)C)C(=O)N[C@H](Cc1ccccc1)C(=O)N[C@H](Cc1c[nH]cn1)C(=O)N[C@H](CCCCN)C(=O)N[C@H](CCCCN)C(N)=O [XMP.560]
- Radial Diffusion (pmol to achieve 30 mm^2 zone C. albicans SLU1) (Candida albicans SLU-1): 451 pmol
- Broth Microdilution (MIC values in μg/mL C. albicans SLU1) [1]: 2 µg/mL
- improvement in mortality compared with dextrose-treated controls (Candida albicans, SLU-1): did not exhibit statistically significant improvement
